Measurements: patent publication EP1388586A2, “Identification of broadly reactive DR restricted epitopes” (priority 1998, dated 1999)
Read-outs that look alike come from different tables or passages of the source. Ends that are not written are not given here.

Experiments:
DRB1*1101 (DR5w11) = target: T1, DRB1*1101 (DR5w11) (Homo sapiens, UniProt P01903+P01911, A100R/A169T/A87E/I96F/K41T/L162R/M171V/P40S/Q125H/Q178H/Q39Y/Q99D/R42S/S66Y/T262R/V115G/W38E); assay: Class II peptide-binding assay, DR5w11;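 note: competition by unlabeled test peptide against iodinated probe peptide binding to affinity-purified HLA-DR, class II amount titrated beforehand, half-maximal inhibitory concentration read as approximate Kd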
T1 construct: used as sources of human HLA class II molecules; endogenous in cells; host or cells: SWEIG (EBV-transformed homozygous B cell line)
T1 sequence (P01903 26-254, other chains not shown): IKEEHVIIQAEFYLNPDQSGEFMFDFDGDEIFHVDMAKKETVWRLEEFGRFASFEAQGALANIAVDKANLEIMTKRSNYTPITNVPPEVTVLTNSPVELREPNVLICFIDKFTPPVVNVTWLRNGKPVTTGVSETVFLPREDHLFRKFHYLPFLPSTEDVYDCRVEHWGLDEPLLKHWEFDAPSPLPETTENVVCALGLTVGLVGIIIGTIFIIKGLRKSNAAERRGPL
Method: (§1) Class II peptide-binding assays. […] These assays were chosen as to be representative of the most common DR alleles.
(§2) Radiolabeled peptides were iodinated using the chloramine-T method. […] In appropriate stoichiometric conditions, the IC50 of an unlabeled test peptide to the purified DR is a reasonable approximation of the affinity of interaction (Kd). Peptides were tested in two to four completely independent experiments. […] Final detergent concentration in the incubation mixture was 0.05% Nonidet P-40. Assays were performed at pH 7.0 with the exception of DR3, which was performed at pH 4.5, and DRw53, which was performed at pH 5.0.
(§3) All subsequent inhibition and direct binding assays were the performed using these class II concentrations.

DRB1*0401 (DR4w4) = target: T2, DRB1*0401 (DR4w4) (Homo sapiens, UniProt P01903+P01911, A100K/A169T/F76Y/I96L/K127E/L162R/M171V/N62H/P40V/Q125Y/R42H/S133A/S149N/S66Y/V115G/V209L/W38E); assay: Class II peptide-binding assay, DR4w4;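 note: unlabeled test peptides compete with a radiolabeled probe peptide for binding to affinity-purified HLA-DR, with DR amount titrated to capture a small fraction of label, IC50 approximating Kd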
T2 construct: used as sources of human HLA class II molecules; endogenous in cells; host or cells: PREISS (EBV-transformed homozygous B cell line)

DRB5*0101 (DR2w2a) = target: T3, DRB5*0101 (DR2w2a) (Homo sapiens, UniProt P01903+Q30154); assay: Class II peptide-binding assay, DR2w2a (DR2w2B2);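 note: competitive binding assay: unlabeled peptide inhibiting binding of a radiolabeled probe peptide to purified DR molecules at pH 7.0, IC50 approximating Kd, lower means stronger binding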
T3 construct: used as sources of human HLA class II molecules; endogenous in cells; host or cells: GM3107 (EBV-transformed homozygous B cell line)

DRB1*0101 (DR1) = target: T4, DRB1*0101 (DR1) (Homo sapiens, UniProt P01903+P01911, A100R/D57E/F55L/F60I/F76Y/I96L/L162R/M171V/P40L/Q125E/R42F/V115G/Y59C); assay: Class II peptide-binding assay, DR1;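 note: competition assay: unlabeled test peptides inhibit binding of a radiolabeled probe peptide to purified DR, with half-maximal inhibition taken as an approximate dissociation constant Kd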
T4 construct: used as sources of human HLA class II molecules; endogenous in cells; host or cells: LG2 (EBV-transformed homozygous B cell line)

DRB1*0301 (DR3w17) = target: T5, DRB1*0301 (DR3w17) (Homo sapiens, UniProt P01903+P01911, A100K/A102G/A103R/A169T/F55Y/I96L/K41T/L162R/M171V/P40S/Q125H/Q178H/Q39Y/R42S/S66N/T106N/T262R/W38E/Y61H); assay: Class II peptide-binding assay, DR3 (pH 4.5);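 note: unlabeled peptide competing with a radiolabeled probe peptide for binding to affinity-purified HLA-DR3, IC50 regarded as an approximation of Kd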
T5 construct: used as sources of human HLA class II molecules; endogenous in cells; host or cells: MAT (EBV-transformed homozygous B cell line)
T5 sequence (P01903 26-254, other chains not shown): as above
Method: as §1
(§4) In appropriate stoichiometric conditions, the IC50 of an unlabeled test peptide to the purified DR is a reasonable approximation of the affinity of interaction (Kd). Peptides were tested in two to four completely independent experiments. […] Final detergent concentration in the incubation mixture was 0.05% Nonidet P-40. Assays were performed at pH 7.0 with the exception of DR3, which was performed at pH 4.5, and DRw53, which was performed at pH 5.0.
as §3

DRB1*0701 (DR7) = DRB1*0701 (DR7) (Homo sapiens, UniProt P01903+P01911, A100R/A102G/A103Q/D57E/D86V/E43K/F76Y/K127E/L162R/M171V/P40G/Q125H/Q99D/R33Q/R42Y/R54Q/S133A/S66F/T210M/V115G/Y107V/Y59L/Y89S); assay: Class II peptide-binding assay, DR7;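 note: unlabeled peptides compete with an iodinated probe peptide for binding to affinity-purified HLA-DR at neutral pH, DR amount titered to bind a small tracer fraction, IC50 approximating Kd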
Method: as §1, §2, §3

DRB10404 (DR4w14) = target: T6, DRB10404 (DR4w14) (Homo sapiens, UniProt P01903+P01911, A100R/A169T/F76Y/I96L/K127E/L162R/M171V/N62H/P40V/Q125Y/R42H/S133A/S149N/S66Y/V209L/W38E); assay: Class II peptide-binding assay, DR4w14; conditions: read-out: DR4w14 nM (In IC50 Format); purified HLA DR4w14;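 note: unlabeled peptides compete with a radiolabeled probe for binding to affinity-purified HLA-DR, neutral pH, class II amount titrated to bind a small fraction of label, IC50 approximates Kd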
T6 construct: used as sources of human HLA class II molecules; endogenous in cells; host or cells: BIN40 (EBV-transformed homozygous B cell line)
Method: as §1, §4, §3

[1] = read-out: In IC50 Format DR3, Table VIII
[2] = read-out: DR5w11 nM (In IC50 Format), purified HLA DR5w11
[3] = read-out: DR4w4 nM (In IC50 Format), purified HLA DR4w4
[4] = read-out: DR1 nM (In IC50 Format), purified HLA DR1
[5] = read-out: DR3 nM (In IC50 Format), purified HLA DR3
[6] = read-out: DR7 nM (In IC50 Format), purified HLA DR7

Molecule: CC[C@H](C)[C@H](NC(=O)[C@H](CC(N)=O)NC(=O)[C@H](CCCCN)NC(=O)[C@H](Cc1ccccc1)NC(=O)[C@H](Cc1ccccc1)NC(=O)[C@H](Cc1c[nH]cn1)NC(=O)[C@@H](NC(=O)[C@@H](NC(=O)[C@@H]1CCCN1C(=O)[C@H](CC(N)=O)NC(=O)[C@H](CCC(=O)O)NC(=O)[C@H](CC(=O)O)NC(=O)[C@H](CCC(N)=O)NC(=O)[C@@H](NC(=O)[C@H](CCCNC(=N)N)NC(=O)CN)[C@@H](C)O)C(C)C)C(C)C)C(=O)N[C@H](C(=O)N[C@H](C(=O)N1CCC[C@H]1C(=O)N[C@@H](CCCNC(=N)N)C(=O)O)[C@@H](C)O)C(C)C [Peptide 507.02]
- IC50 (DRB1*1101 (DR5w11); read-out: In IC50 Format DR5w11, Table VIII): 133 nM
- IC50 (DRB1*0401 (DR4w4); read-out: In IC50 Format DR4w4, Table VIII): 5.8 nM
- IC50 (DRB5*0101 (DR2w2a); read-out: In IC50 Format DR2w2β2, Table VIII): 250 nM
- IC50 (DRB1*0101 (DR1); read-out: In IC50 Format DR1, Table VIII): 17.2 nM
- IC50 (DRB1*0301 (DR3w17); [1]): 60000 nM
- IC50 (DRB1*0701 (DR7); read-out: In IC50 Format DR7, Table VIII): 1000 nM

Molecule: YAEFQAEKTLKAAS-NH2 [Peptide 717.05]
- IC50 (DRB1*1101 (DR5w11); [2]): 48.8 nM
- IC50 (DRB1*0401 (DR4w4); [3]): 6.4 nM
- IC50 (DRB5*0101 (DR2w2a); read-out: DR2w2B2 nM (In IC50 Format), purified HLA DR2w2β2): 339 nM
- IC50 (DRB10404 (DR4w14)): 29.4 nM
- IC50 (DRB1*0101 (DR1); [4]): 8.2 nM
- IC50 (DRB1*0301 (DR3w17); [5]): 4000 nM

Molecule: CC[C@H](C)[C@H](NC(=O)[C@H](CO)NC(=O)[C@H](CCC(=O)O)NC(=O)[C@H](CC(C)C)NC(=O)[C@H](C)NC(=O)[C@@H](N)CC(=O)O)C(=O)N[C@@H](CCSC)C(=O)N[C@H](C(=O)N[C@H](C(=O)N[C@@H](CCCCN)C(=O)N[C@@H](CO)C(=O)N[C@H](C(=O)N[C@@H](CO)C(=O)N[C@@H](Cc1ccccc1)C(=O)N[C@@H](CCCNC(=N)N)C(=O)O)C(C)C)[C@@H](C)O)[C@@H](C)O [Peptide 774.00]
- IC50 (DRB1*0401 (DR4w4); purified HLA DR4w4, read-out: DR4w4 nM (In IC50 Format)): 110 nM
- IC50 (DRB5*0101 (DR2w2a); purified HLA DR2w2β2, read-out: DR2w2B2 nM (In IC50 Format)): 20000 nM
- IC50 (DRB1*0101 (DR1); purified HLA DR1, read-out: DR1 nM (In IC50 Format)): 385 nM
- IC50 (DRB1*0301 (DR3w17); purified HLA DR3, read-out: DR3 nM (In IC50 Format)): 33300 nM
- IC50 (DRB1*0701 (DR7); purified HLA DR7, read-out: DR7 nM (In IC50 Format)): 84.1 nM

Molecule: CSCC[C@H](NC(=O)[C@H](CC(C)C)NC(=O)[C@H](CCC(=O)O)NC(=O)CNC(=O)[C@H](Cc1c[nH]c2ccccc12)NC(=O)[C@@H](N)CS)C(=O)N[C@H](C(=O)N[C@@H](CC(C)C)C(=O)N[C@@H](C)C(=O)N[C@H](C(=O)N[C@@H](Cc1c[nH]c2ccccc12)C(=O)N[C@H](C(=O)NCC(=O)N[C@H](C(=O)N[C@@H](CC(N)=O)C(=O)N[C@@H](CC(C)C)C(=O)N[C@@H](CCC(=O)O)C(=O)N[C@@H](CC(=O)O)C(=O)O)C(C)C)C(C)C)[C@@H](C)O)[C@@H](C)O [Peptide 802.02]
- IC50 (DRB1*1101 (DR5w11); [2]): 5000 nM
- IC50 (DRB1*0401 (DR4w4); [3]): 738 nM
- IC50 (DRB10404 (DR4w14)): 90.7 nM
- IC50 (DRB1*0101 (DR1); [4]): 357 nM
- IC50 (DRB1*0301 (DR3w17); [5]): 100000 nM
- IC50 (DRB1*0701 (DR7); [6]): 6250 nM

Molecule: CSCC[C@H](N)C(=O)NCC(=O)N[C@@H](CCC(N)=O)C(=O)N[C@@H](CC(N)=O)C(=O)N[C@@H](CC(C)C)C(=O)N[C@@H](CO)C(=O)N[C@H](C(=O)N[C@@H](CO)C(=O)N[C@@H](CC(N)=O)C(=O)N1CCC[C@H]1C(=O)N[C@@H](CC(C)C)C(=O)NCC(=O)N[C@@H](Cc1ccccc1)C(=O)N[C@@H](Cc1ccccc1)C(=O)N1CCC[C@H]1C(=O)N[C@@H](CC(=O)O)C(=O)N[C@@H](Cc1c[nH]cn1)C(=O)O)[C@@H](C)O [Peptide 800.01]
- IC50 (DRB1*1101 (DR5w11); [2]): 2000 nM
- IC50 (DRB1*0401 (DR4w4); [3]): 68.8 nM
- IC50 (DRB10404 (DR4w14)): 2000 nM
- IC50 (DRB1*0101 (DR1); [4]): 94.3 nM
- IC50 (DRB1*0301 (DR3w17); [5]): 6820 nM
- IC50 (DRB1*0701 (DR7); [6]): 154 nM

Molecule: CC[C@H](C)[C@H](NC(=O)[C@@H](NC(=O)[C@@H](N)CC(C)C)[C@@H](C)O)C(=O)N[C@H](C(=O)N[C@H](C(=O)N[C@@H](CC(C)C)C(=O)N[C@@H](CCC(=O)O)C(=O)N[C@@H](CC(=O)O)C(=O)N[C@@H](CO)C(=O)N[C@@H](CO)C(=O)NCC(=O)N[C@@H](CC(N)=O)C(=O)N[C@@H](CC(C)C)C(=O)N[C@@H](CC(C)C)C(=O)NCC(=O)O)[C@@H](C)O)[C@@H](C)CC [Peptide 39.0421]
- IC50 (DRB1*0301 (DR3w17); [1]): 100000 nM

Molecule: C[C@H](NC(=O)CNC(=O)CNC(=O)[C@@H](N)CCC(N)=O)C(=O)N[C@@H](C)C(=O)N1CCC[C@H]1C(=O)N[C@@H](CCC(N)=O)C(=O)N1CCC[C@H]1C(=O)N[C@@H](Cc1c[nH]cn1)C(=O)N1CCC[C@H]1C(=O)N1CCC[C@H]1C(=O)N1CCC[C@H]1C(=O)N[C@@H](C)C(=O)N[C@@H](Cc1ccccc1)C(=O)N[C@@H](CO)C(=O)O [Peptide 39.0382]
- IC50 (DRB1*0301 (DR3w17); read-out: In IC50 Format DR3 nM, Table VIII, values in parentheses read as lower bounds): > 120000 nM
